According to patent US11426402B2, “IRE1 activating compounds for use in therapy” (The Scripps Research Institute, priority 2019, dated 2022):

What was measured:
XBP1s = test: Overlap of compound-induced genes with dox-dependent XBP1s activation in HEK293DAX cells; type: cell-based, human
Experimental: (§1) Cells were lysed and total RNA collected using the RNeasy mini kit, according to manufacturer's instructions (Qiagen). Conventional RNA-seq was conducted via BGI Americas on the BGI Proprietary platform, providing single-end 50 bp reads at 20 million reads per sample. Alignment of sequencing data was done using DNAstar Lasergene SeqManPro to the GRCh37. p 13 human genome reference assembly, and assembly data were imported into ArrayStar 12.2 with QSeq (DNAStar Inc.) to quantify the gene expression levels and normalization to reads per kilobase per million (RPKM). Differential expression analysis and statistical significance calculations between different conditions was assessed using “DESeq” in R, compared to vehicle-treated cells, using a standard negative binomial fit of the RPKM data to generate Fold Change quantifications.
These cells stably express both doxycycline (dox)-inducible XBP1s and trimethoprim (TMP) regulated DHFR.ATF6, allowing stress-independent activation of XBP1s and/or ATF6 signaling through addition of the activating ligands dox or TMP, respectively^8.

CHO 7PA2 cells = test: CHO 7PA2 viability; type: cell-based
extracellular Aβ = test: Aβ in media conditioned on CHO 7WD10 cells (wild-type APP); type: cell-based; conditions: CHO 7WD10, APP WT
Experimental: 7PA2 or 7WD10 cells were cultured on 96-well plates (Corning) and treated with IRE1 activating compounds +/−4 μ8c overnight. The medium was then replaced at 50% volume with treatment remaing, culture medium was collected after 24 hours. The medium was analyzed by an AP ELISA as follows. Monoclonal 6E10 anti-Aβ(residues 1-17) mouse IgG1, (Biolegend) was coated in […] carbonate buffer, pH 9.6, at 4° C. overnight on high binding assay black plates (Costar), washed with TBST (tris buffered saline with 0.05% Tween 20) and blocked with 5% non-fat milk in TBST. Samples and standards (condition 7PA2 media) were incubated for 1.5 hr, followed by addition of 4G8 antibody [anti-Aβ residues 17-24, mouse IgG2b (Biolegend)] conjugated to horseradish peroxidase (hrp) and incubated for 1.5 hr at 25° C. After washing, ABM substrate was added, followed by detection with an absorbance plate reader.
ELISA was used to monitor Aβ in media conditioned on a CHO cell line stably expressing the destabilized, disease-associated V717F APP mutant (CHO^7PA2)^45 treated with or without compounds 198, 474, and 970. […] The reduction in A secretion can be attributed to IRE1 activation because the reduced extracellular accumulation of Aβ is blocked by co-treatment with the active site IRE1 inhibitor 4 μ8c (FIG. 5A).

CHO 7WD10 cells = test: CHO 7WD10 viability; type: cell-based
ER proteostasis factors = test: RNAseq expression of 124 proteostasis factors; type: cell-based, human
Experimental: as §1
One of the mechanisms by which IRE1/XBP1s activation is protective is through the targeted transcriptional remodeling of ER proteostasis pathways. Because it was observed that compounds such as 474 and 970 selectively activate IRE1/XBP1s signaling, it was desired to confirm that these compounds similarly promote targeted ER proteostasis network remodeling. […]

SHSY5Y cells = test: CellTiterGlo ATP levels in SHSY5Y cells overexpressing APP SW; type: cell-based; conditions: APP SW overexpressing cells cultured in galactose, 10 μM, 72 hours
Experimental: FIGS. 6A-6C. Histograms showing TMRE staining of SH-SY5Y cells transiently expressing empty vector (Mock) or Swedish mutant APP in the presence or absence of 474 (10 μM) for 72 hours (FIG. 6A). Quantification of TMRE staining in (A). Error bars represent SEM for n=3 replicates. Statistics calculated from one-tailed Student's t-test. *p<0.05, **p<0.01, ***p<0.001 (FIG. 613). Graph showing relative luminescence from CellTiterGlo assay of SH-SY5Y cells transiently expressing empty vector or Swedish mutant APP cultured in galactose media for 72 hours in the presence or absence of IRE1 activator 474 (10 μM). Error bars represent SEM for n=3 replicates. Statistics calculated from one-tailed Student's t-test. *p<0.05, **p<0.01, ***p<0.001 (FIG. 6C).
For determination of relative cellular ATP levels, SHSY5Y cells were seeded into flat black, poly-D-lysine coated 96-well plates (Corning). […] Luminescence was then measured in an Infinite F200 PRO plate reader (Tecan and corrected for background signal. All measurements were performed in biologic triplicate.
Mitochondrial depolarization decreases the capacity for cells to produce ATP through oxidative phosphorylation at the inner mitochondrial membrane. […] Accordingly, ATP levels were monitored in SHSY5Y cells overexpressing APP^SW and incubated in media that was supplemented with glucose or galactose. […]

[1] = tested on: IRE1-specific target genes; test: RT-PCR of Xbp1s and Erdj4 in adipose tissue after single IP dose; type: in vivo
Source text: (§2) FIGS. 7A-7D. RT-PCR of Xbp1s and the IRE1/XBP1s target gene Erdj4 from adipose tissue post single IP dose of 474 (FIG. 7A). Liver RNAseq profiles of ATF6, IRE1 and PERK target genes expressed as log 2 fold change of chronic 474 treatment compared to vehicle (FIG. 7B). Body weight (FIG. 7C) and food intake (FIG. 70) over 6 weeks of dosing.
Obesity has grown into a major public health crisis over the past few decades, enhancing the risk of numerous complications such as type 2 diabetes (T2D). […] of Xbp1, the key transcription factor downstream of IRE1, causes insulin resistance through increased accumulation of ER stress^33. Conversely, overexpression of active Xbp1s in the livers of ob/ob mice restores insulin signaling and reduces gluconeogenesis through the targeted degradation of a key metabolic regulator, FoxO1^55. IRE1 function is also critical in the maintenance of pancreatic β-cell function and glucose stimulated-insulin secretion^56. Although these genetic studies highlight the therapeutic potential of targeting the IRE1-XBP1s signaling axis for T2D and related metabolic disorders, no highly-selective pharmacological IRE1 activators have been available until the present disclosure's provision for screening and optimization of a lead molecule, 474.

PERK target genes = test: Liver RNA sequencing of DIO mice, PERK targets; type: in vivo, mouse; conditions: once-daily IP 50 mg/kg, 6 weeks
Experimental: as §2
To test the efficacy of pharmacologic IRE1 activation in mitigating T2D, we chronically administered 474 by once-daily IP injections at 50 mg/kg for a period of 6 weeks to Diet-Induced Obese (DIO) mice, a model of T2D.

SMILES | overlap of genes induced >1.2 fold with dox-dependent XBP1s activation (XBP1s) | CHO 7PA2 viability (CHO 7PA2 cells) | extracellular Aβ in conditioned media (extracellular Aβ) | cellular viability (CHO 7WD10 cells) | induction of most non-overlapping genes (XBP1s) | top 100 induced genes overlapping with genes induced by dox-dependent XBP1s activation (XBP1s) | remodeling of ER proteostasis factors relative to other compartments (ER proteostasis factors) | ATP levels (SHSY5Y cells) | IRE1-specific target genes in adipose tissue [1] | bioavailability [1] | PERK target genes in liver (PERK target genes)
CCOC(CNC(=O)C1CCCN(Cc2nc(-c3ccc(Cl)cc3)oc2C)C1)OCC (stereo not drawn) [Compound 198] | less overlap | did not significantly influence | reduced extracellular Aβ | without impacting cellular viability | – | – | – | – | – | – | –
O=C(CN(Cc1ccc(Cl)cc1)S(=O)(=O)c1cccnc1)N1CCc2ccccc21 [Compound 970] | > 60% | did not significantly influence | reduced extracellular Aβ | without impacting cellular viability | < 1.3 fold | majority | selective remodeling | – | – | – | –
Cc1ccc(OCCN(C)C(=O)Cn2cc(NC(=O)CCOc3ccccc3)cn2)cc1 [Compound 474] | > 80% | did not significantly influence | reduced extracellular Aβ | without impacting cellular viability | – | majority | selective remodeling | increased | induction | readily bioavailable | no induction
